Test results from US9879008B2, “2,3,4,6-tetra-substituted benzene-1,5-diamine derivatives, preparation method therefor and medicinal use thereof” (SHANGHAI HAIYAN PHARMACEUTICAL TECHNOLOGY CO., LTD., priority 2014, dated 2018).

How the values were obtained:
A431 cells = experiment: ELISA assay for cell activity, EGF-treated A431 cells; format: cell-based; settings: Homo sapiens, A-431, compound 1 h, then EGF 45 min;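 further: Serum-starved A431 cells, ELISA on lysates read as OD450 minus OD570, inhibition scaled between EGF-stimulated wells (0%) and unstimulated cell control (100%), DMSO 0.5% final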
NIH3T3 cell = experiment: MTT cytotoxicity against NIH3T3 cells; format: cell-based; settings: Mus musculus, NIH3T3; cytotoxicity, MTT, 72 h; read-out: MTT assay against NIH3T3 cell (IC50/nM)
H1975 cell = experiment: MTT cytostatic activity, H1975 cell; format: cell-based; settings: MTT;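 further: cells in 96-well plates exposed to compound for 72 h, then given MTT for a further 4 h at 37 °C under 5% CO2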
[1] = Pharmacokinetics in vivo in mice (LC/MS/MS plasma concentration); design: species or system CD1 mice; settings: male, CD1, mouse, plasma
Description: (§1) LC/MS/MS method was applied for determining the drug concentration in plasma at different times after the exemplary compounds were intragastrically and intravenously administered respectively to rats or mice in order to study the pharmacokinetic behavior of the compounds of the invention in vivo in rats or mice and to evaluate their pharmacokinetic characteristics.
(§2) Test Animals: healthy adult male SD rats (weight 200-300 g, 6, fasted) or male CD1 mice (weight 20-30 g, 18 mice, free access to water and food), provided by SLAC company.
(§3) Administration and Dosage: SD rats were administered intravenously on foot dorsal (1 mg/kg, 5 mL/kg, 5% DMAC (dimethylacetamide), 5% Solutol HS 15 (polyethylene glycol-15 hydroxystearate) and 90% saline); and were administered intragastrically (20 mg/kg, 10 mL/kg, 0.5% sodium carboxymethylcellulose aqueous solution); CD1 mice were administered intravenously via tail (1 mg/kg, 5 ml/kg, 5% DMAC, 5% Solutol HS 15 and 90% Saline) and were administered intragastrically (5 mg/kg, 10 mL/kg, 0.5% DMAC, 5% Solutol HS 15 and 90% saline).
(§4) Blood collection: Firstly, the animals which were selected prior to administration and met testing requirements were weighted. The rats or mice were bound before collecting blood. Blood from each administered rat was taken at predetermined time points (intravenous administration on foot dorsal: blood was collected before administration and at 0.083, 0.25, 0.5, 1, 2, 4, 8, 24 h after administration respectively, 9 time points in total; intragastrical administration: blood was collected before administration and at 0.083, 0.25, 0.5, 1, 2, 4, 8, 24 h after administration respectively, 9 time points in total), about 150 μL of blood was collected via tail vein or heart (collecting terminal blood). Blood from each administered mouse was taken at predetermined time points (intravenous administration via tail: blood was collected at 0.083, 0.25, 0.5, 1, 2, 4, 8, 24 h, 8 time points in total; intragastrical administration: blood was collected at 0.25, 0.5, 1, 2, 4, 8, 24 h, 7 time points in total), about 150 μL of blood was collected via orbit or heart (collecting terminal blood). Blood was transferred to a 1.5 mL tube to which K2EDTA was added previously. The collected blood sample was put on wet ice, centrifuged for 5 min (2000 g, at 4° C.), and then the plasma sample was taken. The whole operation was finished within 15 minutes. All of the samples were stored in a refrigerator at −70° C. until analysis.
(§5) The concentration of the drug was determined using LC/MS/MS. The pharmacokinetic parameters of some exemplary compounds of the invention in vivo in rats and mice at same doses and through same administration were shown in Table 5: […]

wild-type EGFR kinase = target: T1, wild-type EGFR kinase (Homo sapiens, UniProt P00533); experiment: z-lyte inhibition test against wild-type EGFR kinase; format: biochemical; settings: 10 μM ATP, read-out: EGFR WT (IC50/nM);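 further: reaction volume 10 µL holding 0.8 ng/µL enzyme and 2 µM Tyr04 substrate, with DMSO at 2% once compounds are present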
T1 construct: purchased Invitrogen PV3872

A431 cell = experiment: MTT cytostatic activity, A431 cell; format: cell-based; settings: Homo sapiens, A-431; MTT, 72 h; read-out: A431 cell (IC50/nM)
H1975 cells = experiment: ELISA assay for cell activity of EGFR T790M inhibitor, H1975 cells
[2] = Pharmacokinetics in vivo in rats (LC/MS/MS plasma concentration); design: species or system SD rats; settings: male, SD, plasma, rat
Description: as §1, §2, §3, §4, §5

T1 sequence (P00533 25-1210): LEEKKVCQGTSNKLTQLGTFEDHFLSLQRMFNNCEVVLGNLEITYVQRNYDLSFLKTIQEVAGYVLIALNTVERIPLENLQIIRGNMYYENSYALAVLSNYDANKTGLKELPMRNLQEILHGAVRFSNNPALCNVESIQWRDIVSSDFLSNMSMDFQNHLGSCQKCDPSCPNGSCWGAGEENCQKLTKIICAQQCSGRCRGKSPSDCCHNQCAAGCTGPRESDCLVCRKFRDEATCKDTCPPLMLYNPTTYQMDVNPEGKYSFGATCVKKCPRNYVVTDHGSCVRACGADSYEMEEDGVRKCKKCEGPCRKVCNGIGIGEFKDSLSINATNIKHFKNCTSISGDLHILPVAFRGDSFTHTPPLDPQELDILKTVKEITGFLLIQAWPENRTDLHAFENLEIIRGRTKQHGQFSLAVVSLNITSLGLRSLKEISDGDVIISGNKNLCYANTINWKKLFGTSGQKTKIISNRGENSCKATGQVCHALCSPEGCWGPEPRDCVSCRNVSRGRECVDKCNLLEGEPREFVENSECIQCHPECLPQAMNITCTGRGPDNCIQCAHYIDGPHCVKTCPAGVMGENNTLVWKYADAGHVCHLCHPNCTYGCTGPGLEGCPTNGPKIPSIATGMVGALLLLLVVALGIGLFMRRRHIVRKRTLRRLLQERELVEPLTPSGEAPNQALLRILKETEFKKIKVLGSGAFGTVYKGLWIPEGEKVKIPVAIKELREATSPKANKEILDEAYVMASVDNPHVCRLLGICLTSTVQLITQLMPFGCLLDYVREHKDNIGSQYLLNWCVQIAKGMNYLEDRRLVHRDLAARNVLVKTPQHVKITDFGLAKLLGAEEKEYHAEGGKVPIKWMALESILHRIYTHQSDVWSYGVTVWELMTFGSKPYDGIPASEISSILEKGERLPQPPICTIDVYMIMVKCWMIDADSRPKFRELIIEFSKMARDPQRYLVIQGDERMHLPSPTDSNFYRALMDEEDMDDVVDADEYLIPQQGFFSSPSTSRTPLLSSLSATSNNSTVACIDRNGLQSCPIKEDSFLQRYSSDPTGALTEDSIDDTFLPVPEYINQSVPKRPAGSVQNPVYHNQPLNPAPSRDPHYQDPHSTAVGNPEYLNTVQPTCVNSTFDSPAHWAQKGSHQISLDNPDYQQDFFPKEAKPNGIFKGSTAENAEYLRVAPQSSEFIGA

IC50 (A431 cells): 458 nM
IC50 (H1975 cell; Homo sapiens, NCI-H1975, 72 h, read-out: H1975 cell (IC50/nM)): 7 nM
Selective inhibitory activity against cells [IC50(A431 cell)/IC50(H1975 cell)] (H1975 cell; ratio of cell IC50 values): 132.3
AUC ([1]; intravenous 1 mg/kg, intragastric 5 mg/kg (route per parameter not given), read-out: Area under the curve AUC): 1290 ng·h/mL
clearance ([1]; intravenous 1 mg/kg, intragastric 5 mg/kg (route per parameter not given), read-out: Clearance CL): 42.5 mL/min/kg
half-life ([1]; intravenous 1 mg/kg, intragastric 5 mg/kg (route per parameter not given), read-out: Half-life T1/2 (converted)): 3.4 h
Cmax ([1]; intravenous 1 mg/kg, intragastric 5 mg/kg (route per parameter not given), read-out: Maximum plasma concentration Cmax): 139 ng/mL
bioavailability ([1]; po, intragastric 5 mg/kg vs intravenous 1 mg/kg, read-out: Oral relative bioavailability F): 66.6%
IC50 (wild-type EGFR kinase): 16 nM
IC50 (A431 cell): 926 nM
Selective inhibitory activities against cell [IC50(A431 cell)/IC50(H1975 cell)] (H1975 cells; ELISA, ratio of cell IC50 values): 23
IC50 (H1975 cells; Homo sapiens, NCI-H1975, 1 h, read-out: H1975 cell (IC50/nM)): 20 nM
bioavailability ([2]; po, intragastric 20 mg/kg vs intravenous 1 mg/kg, read-out: Oral relative bioavailability F): 128%
AUC ([2]; intravenous 1 mg/kg, intragastric 20 mg/kg (route per parameter not given), read-out: Area under the curve AUC): 5980 ng·h/mL
clearance ([2]; intravenous 1 mg/kg, intragastric 20 mg/kg (route per parameter not given), read-out: Clearance CL): 71.2 mL/min/kg
half-life ([2]; intravenous 1 mg/kg, intragastric 20 mg/kg (route per parameter not given), read-out: Half-life T1/2 (converted)): 3.73 h
Cmax ([2]; intravenous 1 mg/kg, intragastric 20 mg/kg (route per parameter not given), read-out: Maximum plasma concentration Cmax): 482 ng/mL
Structure (SMILES): C=CC(=O)Nc1cc(Nc2ncc(Cl)c(SC3CN(S(C)(=O)=O)C3)n2)c(OC)cc1N1CCC(N(C)C)CC1 [Compound J-13, N-(5-(5-chloro-4-(1-(methylsulfonyl)azetidine-3-thio)pyrimidine-2-amino)-2-(4-(dimethylamino)piperidine-1-yl)-4-methoxylphenyl)acrylamide]
IC50 (NIH3T3 cell): > 10000 nM
